What is called melting point is the temperature, or range, at which the solid turns liquid.

Chain of human NK1 receptors (P25103 whole entry): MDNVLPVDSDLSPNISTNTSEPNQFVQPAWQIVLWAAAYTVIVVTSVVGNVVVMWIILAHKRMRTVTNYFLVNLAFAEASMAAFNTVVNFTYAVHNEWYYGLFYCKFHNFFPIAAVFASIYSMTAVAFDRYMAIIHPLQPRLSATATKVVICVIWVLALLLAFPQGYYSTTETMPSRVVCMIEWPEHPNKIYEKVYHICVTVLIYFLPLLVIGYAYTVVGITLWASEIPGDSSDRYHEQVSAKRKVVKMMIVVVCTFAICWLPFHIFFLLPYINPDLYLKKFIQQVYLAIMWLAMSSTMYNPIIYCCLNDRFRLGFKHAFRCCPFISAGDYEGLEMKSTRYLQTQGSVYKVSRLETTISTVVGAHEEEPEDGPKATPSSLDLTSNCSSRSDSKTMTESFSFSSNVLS

The first series has as its target human NK1 receptors (Homo sapiens, UniProt P25103). The experiment in a line: Affinity for the NK1 receptor, [3H]substance P displacement binding assay. The settings on record: human NK1 receptors in CHO cells (Semliki virus expression system); [3H]substance P 0.6 nM; 60 min at room temperature. The method, then:
The affinity of test compounds for the NK1 receptor was evaluated at human NK1 receptors in CHO cells infected with the human NK1 receptor (using the Semliki virus expression system) and radiolabelled with [^3H]substance P (final concentration 0.6 nM). Binding assays were performed in HEPES buffer (50 mM, pH 7.4) containing BSA (0.04%) leupeptin (8 μg/ml), MnCl2 (3 mM) and phosphoramidon (2 μM). Binding assays consisted of 250 μl of membrane suspension (1.25×10^5 cells/assay tube), […] of buffer of displacing agent and 125 μl of [^3H]substance P. Displacement curves were determined with at least seven concentrations of the compound. The assay tubes were incubated for 60 min at room temperature after which time the tube contents were rapidly filtered under vacuum through GF/C filters presoaked for 60 min with PEI (0.3%) with 2×2 ml washes of HEPES buffer (50 mM, pH 7.4). The radioactivity retained on the filters was measured by scintillation counting. All assays were performed in triplicate in at least 2 separate experiments.
Regarding `Cc1ccccc1N1CN(Cc2cccnc2)C(=O)C12CCN(C(=O)c1cc(C(F)(F)F)cc(C(F)(F)F)c1)CC2` [Example 45, 8-(3,5-Bis-trifluoromethyl-benzoyl)-3-pyridin-3-yl-methyl-1-o-tolyl-1,3,8-triaza-spiro[4.5]decan-4-one], the “pKi (affinity to the NK-1 receptor)” value was 8.29. As to “Rac-8-(3,5-Bis-trifluoromethyl-benzoyl)-3-(2-methoxy-ethyl)-2-methyl-1-o-tolyl-1,3,8-triaza-spiro[4.5]decan-4-one [Example 137]”, the “pKi (affinity to the NK-1 receptor)” value was determined as 8.34.

Staying with this series, now noted: human NK1 receptors in CHO cells (Semliki virus expression system); [3H]substance P 0.6 nM; 60 min at room temperature; read-out: pKi (affinity to the NK-1 receptor) (converted).
Take `CC1NC(=O)C2(CCN(C(=O)c3cc(C(F)(F)F)cc(C(F)(F)F)c3)CC2)N1c1ccccc1` (racemic) [Example 91, (rac)-8-(3,5-Bis-trifluoromethyl-benzoyl)-2-methyl-1-phenyl-1,3,8-triaza-spiro[4.5]decan-4-one]: the Ki is 7.59 nM. Consider `Cc1ccccc1C1CNC(=O)C12CCN(C(=O)c1cc(C(F)(F)F)cc(C(F)(F)F)c1)CC2` (racemic) [Example 176, (rac)-8-(3,5-Bis-trifluoromethyl-benzoyl)-4-o-tolyl-2,8-diaza-spiro[4.5]decan-1-one], for which the Ki was 7.59 nM. Take `COc1nc(OC)nc(N2CN(c3ccccc3)C3(CCN(C(=O)c4cc(C(F)(F)F)cc(C(F)(F)F)c4)CC3)C2=O)n1` [Example 6, 8-(3,5-Bis-trifluoromethyl-benzoyl)-3-(4,6-dimethoxy-[1,3,5]triazin-2-yl)-1-phenyl-1,3,8-triaza-spiro[4.5]decan-4-one]: the Ki is 2.19 nM. On to `O=C(c1cc(C(F)(F)F)cc(C(F)(F)F)c1)N1CCC2(CC1)C(=O)N(c1ncc(Cl)cc1Cl)CN2c1ccccc1` [Example 26, 8-(3,5-Bis-trifluoromethyl-benzoyl)-3-(3,5-dichloro-pyridin-2-yl)-1-phenyl-1,3,8-triaza-spiro[4.5]decan-4-one], for which the Ki is 33.9 nM. Still for that read-out and setting: in the case of `COc1nc(OC)nc(N2CN(c3ccc(Cl)c(Cl)c3)C3(CCN(C(=O)c4cc(C(F)(F)F)cc(C(F)(F)F)c4)CC3)C2=O)n1` [Example 39, 8-(3,5-Bis-trifluoromethyl-benzoyl)-1-(3,4-dichloro-phenyl)-3-(4,6-dimethoxy-[1,3,5]triazin-2-yl)-1,3,8-triaza-spiro[4.5]decan-4-one] it was 93.3 nM.

Turning to `Cc1ccccc1N1CN(CCN2CCCC2)C(=O)C12CCN(C(=O)c1cc(C(F)(F)F)cc(C(F)(F)F)c1)CC2` [Example 58, 8-(3,5-Bis-trifluoromethyl-benzoyl)-3-(2-pyrrolidin-1-yl-ethyl)-1-o-tolyl-1,3,8-triaza-spiro[4.5]decan-4-one], the Ki was 8.32 nM. With `CN1CN(c2ccccc2Cl)C2(CCN(C(=O)c3cc(C(F)(F)F)cc(C(F)(F)F)c3)CC2)C1=O` [Example 70, 8-(3,5-Bis-trifluoromethyl-benzoyl)-1-(2-chloro-phenyl)-3-methyl-1,3,8-triaza-spiro[4.5]decan-4-one], the Ki is 4.27 nM. As to `Cc1ccccc1C1=CN(C)C(=O)C12CCN(C(=O)c1cc(C(F)(F)F)cc(C(F)(F)F)c1)CC2` [Example 170, 8-(3,5-Bis-trifluoromethyl-benzoyl)-2-methyl-4-o-tolyl-2,8-diaza-spiro[4.5]dec-3-en-1-one], the Ki was 11 nM.

System in a further series: not given
Test: not given
Conditions: not given
In turn, `O=C(c1cc(C(F)(F)F)cc(C(F)(F)F)c1)N1CCC2(CC1)C(=O)NC(=O)N2c1ccccc1Cl` had a melting point of 153 to 154 °C. On the same count and under the same terms, the same measure for `O=C(c1cc(C(F)(F)F)cc(C(F)(F)F)c1)N1CCC2(CC1)C(=O)NCN2c1ccccc1` [Example 1, 8-(3,5-Bis-trifluoromethyl-benzoyl)-1-phenyl-1,3,8-triaza-spiro[4.5]decan-4-one]: 251 °C. Same read-out and setting: in the case of `O=C(c1cc(C(F)(F)F)cc(C(F)(F)F)c1)N1CCC2(CC1)C(=O)N(c1cc(Cl)ncn1)CN2c1ccccc1` [Example 61, 8-(3,5-Bis-trifluoromethyl-benzoyl)-3-(6-chloro-pyrimidin-4-yl)-1-phenyl-1,3,8-triaza-spiro[4.5]decan-4-one] it was 212 to 214 °C. Consider `O=C(c1cc(C(F)(F)F)cc(C(F)(F)F)c1)N1CCC2(CC1)C(=O)NCN2c1cccc(Cl)c1` [Example 63, 8-(3,5-Bis-trifluoromethyl-benzoyl)-1-(3-chloro-phenyl)-1,3,8-triaza-spiro[4.5]decan-4-one], for which the melting point fell in the range of 235 to 236 °C.

Turning to `O=C(c1cc(C(F)(F)F)cc(C(F)(F)F)c1)N1CCC2(CC1)C(=O)NCN2c1ccc(Cl)cc1` [Example 64, 8-(3,5-Bis-trifluoromethyl-benzoyl)-1-(4-chloro-phenyl)-1,3,8-triaza-spiro[4.5]decan-4-one], the melting point lay within 233 to 235 °C. In the case of `O=C(c1cc(C(F)(F)F)cc(C(F)(F)F)c1)N1CCC2(CC1)C(=O)NCN2c1ccc(Cl)c(Cl)c1` [Example 65, 8-(3,5-Bis-trifluoromethyl-benzoyl)-1-(3,4-dichloro-phenyl)-1,3,8-triaza-spiro[4.5]decan-4-one], the melting point lay in the range of 220 to 222 °C. In turn, `Cc1ccccc1N1CNC(=O)C12CCN(C(=O)c1cc(C(F)(F)F)cc(C(F)(F)F)c1)CC2` [Example 66, 8-(3,5-Bis-trifluoromethyl-benzoyl)-1-o-tolyl-1,3,8-triaza-spiro[4.5]decan-4-one] returned a melting point of 164 to 168 °C. `O=C(c1cc(C(F)(F)F)cc(C(F)(F)F)c1)N1CCC2(CC1)C(=O)NCN2c1ccccc1Cl` [Example 67, 8-(3,5-Bis-trifluoromethyl-benzoyl)-1-(2-chloro-phenyl)-1,3,8-triaza-spiro[4.5]decan-4-one]: the melting point is 157 to 159 °C.

The values above are taken from patent US6482829B2, “Substituted heterocyclic siprodecane compound active as an antagonist of neurokinin 1 receptor” (Hoffmann-La Roche Inc., priority 2000, dated 2002).
